# Laboratory results as given in a melting point compilation (Tetko et al.; mined from patent text by program, amines drawn as free bases though some values may be those of a salt).
row,Compound,melting point [°C]
1,Nc1nc2ccccc2c2c1nc(CF)n2Cc1cc(-c2ccc(F)cc2)no1,192 to 193
2,CCOc1ccc(C(=O)Nc2ccccc2NC(=O)c2cccc(C(N)=NO)c2)cc1,180 to 182
3,CC(CN(C)C)On1c(=O)nc(-c2ccc3c(c2)OCO3)c2cc3c(cc21)OCO3 (stereo not drawn),160 to 165
4,CC1(C)Nc2ccccc2-n2cnc(-c3nc(C4CC4)no3)c21,175 to 179
5,CCCC(=O)C(=CNc1cscc1OC)C(=O)OCC,89 to 91
6,COc1ccc(C2=NN(C3CCN(C(=O)CCSCCNC(=O)OC(C)(C)C)CC3)C(=O)[C@@H]3CC=CC[C@H]23)cc1OC,132 to 134
7,OC1CCc2cc3ccccc3n2C1 (stereo not drawn),99 to 100
8,C=CCn1cc(C(=O)O)c(=O)c2cc(F)c(N3CCNCC3)cc21,136
9,COC(=O)c1cc(N(CCBr)CCBr)c(S(C)(=O)=O)cc1[N+](=O)[O-],161 to 162
10,COc1cc(NC(NC2CCC2)=C(C#N)S(=O)(=O)c2ccc(Cl)cc2)cc(OC)c1,164
11,CC1CCCN1c1nc(C#N)nc(Cl)c1/C(Br)=C(\Br)[Si](C)(C)C (stereo not drawn),166 to 168
12,CCc1cn(C)c(C2Cc3ccccc3N2C(C)=O)n1 (stereo not drawn),105 to 106
13,CCC(C)Cn1c(=O)n(C)c(=O)c2c1nc(C)n2C(=O)OC (stereo not drawn),110 to 112
14,CC(C)N(CCCCOCC(=O)O)c1nc(-c2ccccc2)c(-c2ccccc2)nc1Cl,136 to 138
15,Cc1cccc(-n2nc3c(c2-c2cc4cnccc4s2)CCC3)n1,146 to 148
16,Nc1nc(N)n(CCCOc2cccc(CN3CCCCC3)c2)n1,100
17,OCCCN1CCC(C(O)(c2ccc(F)cc2)c2ccc(F)cc2)CC1,155 to 157
18,Cc1c(O)c(C)c2nc(COc3ccc(CC4SC(=O)NC4=O)cc3)n(C)c2c1C (stereo not drawn),240 to 244
19,Clc1cc2nc3cc4ccccc4[nH]c-3c2cc1Br,> 246
20,CC(C)(c1ccc(Oc2cccc(N3C(=O)C=CC3=O)c2)cc1)c1ccc(C(C)(C)c2ccc(Oc3cccc(N4C(=O)C=CC4=O)c3)cc2)cc1,192 to 193
21,O=[N+]([O-])c1cccnc1Cc1ccccc1,72
22,O=C(O)COCc1cccc(-c2ccccc2OC2OC(CO)C(O)C(O)C2O)c1 (stereo not drawn),77 to 78
23,O=C(c1ccc(Cl)cc1)c1ccc(N2N=CCNC2=O)cc1Cl,158 to 159
24,OCc1ccc(Cn2c(CC3CCN(Cc4ccccc4)CC3)nc3ccccc32)o1,144
25,CCCCCCCCCCCCCCCC(=O)Nc1cscc1NC(=O)CCCCCCCCCCCCCCC,107 to 109

row,Compound,melting point [°C]
1,N#CC(C#N)=CN(N=C(C#N)C#N)c1ccc(Cl)cc1,161 to 162
2,CCCCc1nn(-c2cc(N)ccc2Br)c(=O)n1Cc1ccc(-c2ccccc2S(=O)(=O)NC(C)(C)C)cc1F,103 to 105
3,CCC(=O)OC(c1nc2c(C(F)(F)F)cccc2c(O)c1C(=O)Nc1nccs1)C(C)C (stereo not drawn),222
4,O=c1oc2cc(O)c(O)cc2c(O)c1C1=CCOc2oc3ccccc3c(=O)c21,258 to 260
5,CC(O)COC1CCNCC1 (stereo not drawn),55 to 57
6,O=C1Nc2ccc(F)cc2C(C#Cc2ccccc2)(C(F)(F)F)N1 (racemic),107
7,CCN(CC)c1ccc(S(=O)(=O)NCCCCC(=O)O)cc1,106 to 108
8,CC(C)(C)OC(=O)Nc1ccc(I)cc1,148 to 149
9,C#CCOc1cc(Oc2cc(Cl)ccc2Cl)ncn1,87.7
10,CC(C)(C)OC(=O)NCC(=O)Oc1cccc(-c2cn3c(n2)sc2ccccc23)c1,150
11,Cc1cccc(-c2[nH]c(C(C)C)nc2-c2ccc(F)c(-c3ccc(S(C)(=O)=O)cn3)c2)n1,105 to 108
12,Cc1cc([N+](=O)[O-])c(O)cc1Cl,70 to 71
13,Cc1nc(F)c(S(C)(=O)=O)c(F)n1,120 to 123
14,O=C(Nc1ccc2oc3c(c2c1)CCCC3)c1ccc(Cl)cc1,214
15,O=C(O)c1ncc(C(c2ccccc2)c2ccccc2)cc1C(c1ccccc1)c1ccccc1,172 to 175
16,COC(=O)c1ccc(Cn2nc(O)c3[nH]c4cc(Cl)ccc4c(=O)c3c2=O)cc1,> 290
17,CC(C)C[C@H](NS(=O)(=O)c1cccc2ccccc12)C(=O)N[C@H]1CCCOC1O (stereo partly drawn),159 to 161
18,COc1ccc(N2CCN(Cc3cnc(Cc4ccc(OC)c(OC)c4)c4cc(OC)c(OC)cc34)CC2)cc1,176 to 177
19,CC(CNC(=S)Nc1ccc(N2CCCCC2)cc1)N(Cc1ccc(Cl)c(Cl)c1)c1ccc(Br)cn1 (stereo not drawn),125 to 127
20,COCSc1nccn1-c1cccc(C(=O)CC(=O)Nc2cc(-c3ccccc3F)ccc2NC(=O)OC(C)(C)C)c1,83 to 86
21,CCOC(=O)c1c(C)nc(O)nc1O,145 to 148
22,CCc1cc(C)cc(CC)c1NC(=S)NC(C)(C)CC,98 to 101
23,COC(=O)C(Cl)=Cc1cc(N)ccc1Cl,104 to 105
24,COc1ccc([C@H](Sc2cc(Oc3ccccc3)ccc2N)[C@@H](O)C(=O)O)cc1,151 to 152
25,O=C(O)C(O)(C(F)F)C(F)F,72.5 to 73.5

row,Compound,melting point [°C]
1,CC(C)c1cc(-c2ccc(F)cc2)n(-c2ccccn2)n1,80 to 81
2,Cc1ccccc1C(=O)NC(NC(=NC#N)Nc1cccnc1)C(Cl)(Cl)Cl (stereo not drawn),126 to 128
3,COc1ccc2cc(-c3cncn3C)cc(C)c2n1,160 to 162
4,Nc1ccc(Cl)cc1C(O)c1ccccc1F (stereo not drawn),94 to 98
5,O=C(c1cccnc1)N1CCCC(c2ccccc2)=N1,84 to 86
6,CCN1Cc2ccccc2N(CC)C(Nc2nc(Nc3cc4c(cc3OC)CCN(CC(=O)N(C)C)CC4)ncc2Cl)C1 (stereo not drawn),85 to 90
7,COc1ccccc1NC(=O)Nc1ccc(CC(=O)NC(CC(C)C)c2ncc(CCC(=O)O)s2)cc1 (stereo not drawn),197 to 198
8,COc1ccc2c(c1Br)CCC=C2C#N,108 to 109
9,Cc1cc(Oc2ccc([N+](=O)[O-])c(N(C)C(=O)OC(C)(C)C)c2)cc(C)c1NC(=O)OC(C)(C)C,154 to 156
10,CCC(C)(C)c1ccc(OCCCC(=O)Nc2ccc(OC)c(NC(=O)CC(=O)C3(C)COC(C)(C)OC3)c2)c(C(C)(C)CC)c1,128 to 130
11,Fc1cccc(-c2cn([C@H]3CN4CCC3CC4)nn2)c1,120
12,CCOC(=O)N1CCN(c2ccc(-n3cn[nH]c3=O)cn2)CC1,221
13,CCC(c1ccc(Br)cc1)N(O)C(=O)NC (stereo not drawn),110 to 112
14,CCC(=O)c1ccc(CCN(C(C)=O)S(=O)(=O)c2ccc(Cl)cc2)cc1,91 to 92
15,COc1cc(CC(=O)NCCCc2ccc(C)c(C)c2)ccc1OCCNC(=O)c1ccccc1OC(C)=O,135 to 137
16,Cc1ccc(-c2ccccc2C(=O)Nc2ccc(C(=O)N3C[C@@H]4C[C@@H](O)CN4c4ccccc43)cc2)cc1,163 to 164
17,CCC1NC(=O)N(c2ccccc2)C(=O)N1OC(C)=O (stereo not drawn),128 to 130
18,Cc1ccccc1C(=O)c1cc2c(cc1O)CCC2,61 to 62
19,Cn1cc(-c2cc3cccnc3[nH]2)c2cc(-c3nn[nH]n3)ccc21,303
20,CC(C(O)CCC(C)(C)C)C1CCC2C3CC=C4CC(O)CCC4(C)C3CCC12C (stereo not drawn),191 to 193
21,CCCCCN1CC[C@@H](c2ccc(Cl)cc2)[C@H](CO)C1 (racemic),125 to 128
22,O=C(O)Cc1cc(Br)cc(Br)c1OCCc1ccccc1,81 to 84
23,CC(=O)NCC1CC(c2ccc(C3=CCN(C(=O)CO)CC3)cc2)=NO1 (stereo not drawn),115 to 118
24,Cc1ccc(C(=O)c2noc(CC(=O)O)n2)cc1,140 to 141
25,O=C(/C=C/c1ccc(C(F)(F)F)cc1)Nc1ccc2c(c1)NCC(CO)C2 (stereo not drawn),176 to 179

row,Compound,melting point [°C]
1,COc1nc2c(O)cccc2n1C,226 to 229
2,COC(=O)c1cc(Cl)c(Oc2ccc(O)cc2)c(Cl)c1,152 to 155
3,COCCOC1C(O)C(CO)OC1n1cnc2c(N)nc(N)nc21 (stereo not drawn),152 to 154
4,CC(C)(C)OC(=O)[C@@H]1CS[C@H](c2c(F)cccc2Cl)N1C(=O)CNC(=O)Nc1cccc(C(=O)O)c1,148
5,O=C(CCl)c1ccc2c(c1)Cc1cc(C(=O)CCl)ccc1O2,200 to 201
6,COC(=O)c1cn(C)c2cc(OC)c(C(F)(F)F)cc12,166 to 170
7,Cc1oc(-c2cc3ccccc3s2)nc1COc1ccc(CCCn2ccnc2)cc1,142 to 143
8,CC(C)c1ccc(N(Cc2ccc(N(C)C)nc2)C(=O)C2CCCc3c(O)cccc32)cc1 (stereo not drawn),187
9,CCOC(=O)c1c(CN2CCCCC2)nc2cc(OCC)c(OCC)cc2c1-c1ccc(OC)c(OC)c1,154 to 155
10,CC1Cc2c(c3cccnc3n(-c3ccc(Cl)c(Cl)c3)c2=O)O1 (stereo not drawn),273 to 274
11,COc1ccc(COc2c(OC)cc(C=C(C(=O)OC(C)C)P(=O)(OC)OC)cc2OC)cc1,68 to 69
12,CCOC(=O)c1c(NC2CC(C)(C)NC(C)(C)C2)cc(C)nc1C,89 to 90
13,O=C(O)c1ccc(-c2ccc(S(=O)(=O)N3CCCC(CO)C3)cc2)[nH]c1=O (stereo not drawn),300 to 304
14,Cc1cnc(-n2ccc(C(F)(F)F)n2)nc1Oc1csc(C(F)(F)F)c1,113 to 115
15,CC(=O)Oc1ccc2c3c(ccc2c1)C1CC=CC1(C)CC3 (stereo not drawn),95 to 96
16,CC(C)c1ccc(Cn2nnnc2-c2ccc(OC(=O)C(C)(C)C)cc2)cc1,111 to 113
17,CCCCCCCCCCCCCCCCOCC(CO)OC (stereo not drawn),56
18,Cn1cc(C(=O)O)c(=O)c2cc3cc(F)c(N4CCNC(c5ccco5)C4)c(F)c3nc21 (racemic),295 to 296
19,CC(=O)N1c2ccccc2Sc2cc(F)ccc21,125
20,CC(C)OC(=O)N1CCN(c2ccn3ncc(-c4cccn(C)c4=O)c3n2)CC1,206 to 207
21,N#Cc1ccc(N2CCC(F)(F)C2)c2ccsc12,169 to 170
22,CS(=O)(=O)c1cccc(NC(=O)c2cnn3c(C(F)F)cc(-c4ccc(OC(F)(F)F)cc4)nc23)c1,223
23,CCC(=O)NC[C@H]1CN(c2ccc(C3C=CS(=O)(=O)CC3)cc2)C(=O)O1 (stereo partly drawn),144 to 147
